Tests used:
Type in all cases: cell-based
[1] = test system: human retinal pigmented epithelial cells (ARPE-19); assay: SAβG activity staining in senescent retinal pigmented epithelial cells; details: premature senescent retinal pigmented epithelial cells by doxorubicin; 100 nM, 4 days; vs DMSO-treated group; p<0.01
Method: (§1) Each cell was treated in a serum-free culture solution containing 0.5 μM doxorubicin for 4 hours. After washing the cells with a serum-free culture solution, the cells were cultured for 4 days in a culture solution containing 10% FBS, and then cellular aging was confirmed by staining with senescence-associated beta galactosidase (SAβG). After each sample was dissolved in DMSO, young cells, replicative senescent cells, and premature senescent cells treated with doxorubicin were treated with 100 nM zotarolimus, 100 nM rapamycin, 100 nM ABT263, respectively. After incubation for 4 days in a 37° C., 5% CO2 incubator, the degree of cell growth was confirmed by CCK-8 analysis, the degree of cellular aging was confirmed by senescence-related beta-galactosidase (SAβG) staining, The cells were washed with 1× phosphate buffer solution, and fixed with a phosphate buffer solution containing 3.7% (v/v) paraformaldehyde. After adding 1 mg/ml 5-bromo-4-chloro-3-indolyl-6-D-galactoside, 40 mM citric acid-sodium phosphate (pH 6.0), 5 mM potassium ferricyanide, 5 mM potassium ferrocyanide, 150 mM NaCl, and 2 mM MgCl2 solution, it was reacted at 37° C. for 18 hours. It was stained with eosin as a control stain. Cells stained blue in the cytoplasm were identified using an optical microscope. […]

[2] = test system: human tubular epithelial cell (HK2); assay: SAβG activity staining in premature senescent HK2 cells; details: premature senescent HK2 cells by doxorubicin; 100 nM, 4 days
Method: as §1

[3] = test system: human dermal fibroblasts (HDF); assay: LDH activity in cell culture solution of human fibroblasts; details: young and replicative senescent fibroblasts; 4 days
Method: Cytotoxicity against young and senescent cells was investigated with a lactate dehydrogenase (LDH) activity kit (Dojindo Molecular Technologies Inc.).
Young cells (1×10^3 cells/100 μl/well) or senescent cells (2×10^3 cells/100 μl/well) were dispensed into a 96-well plate, and then cultured overnight in a 37° C., 5% CO2 incubator. Zotarolimus and ABT263 were treated at each concentration, and then incubated for 4 days in a 37° C., 5% CO2 incubator.
After transferring the cell culture solution to a 1.5 ml tube, it was centrifuged at 4° C. and 12,000 rpm. 100 μl of the supernatant was dispensed into a 96-well plate, and 100 μl of the LDH measurement solution was added to each well, followed by reaction in a CO2 incubator for 30 minutes.
50 μl of the LDH reaction stop solution was added, and absorbance was measured at 490 nm using a microplate reader. The level of LDH activity was expressed as a relative value based on the absorbance of the control group treated with only DMSO.
From the above results, in order to confirm whether the decrease in cell growth caused by zotarolimus was due to cell death or simply because the growth stopped, LDH activity was investigated in the cell culture solution.

[4] = test system: human umbilical vascular endothelial cells (HUVEC); assay: CCK-8 cell growth analysis in vascular endothelial cells
Method: Each cell was treated in a serum-free culture solution containing 0.5 μM doxorubicin for 4 hours. After washing the cells with a serum-free culture solution, the cells were cultured for 4 days in a culture solution containing 10% FBS, and then cellular aging was confirmed by staining with senescence-associated beta galactosidase (SAβG). After dispensing 2×10^5 cells in a 100 mm culture dish, they were cultured in a 37° C., 5% CO2 incubator. When the cells grew to 80-90% in the culture dish, the cells were removed by treatment with trypsin-EDTA, and the number of cells was measured, and the cell population doubling time (PDT) was measured. After each sample was dissolved in DMSO, young cells, replicative senescent cells, and premature senescent cells treated with doxorubicin were treated with 100 nM zotarolimus, 100 nM rapamycin, 100 nM ABT263, respectively. […] Then, the absorbance was measured at 450 nm using a microplate reader. The degree of cell growth was expressed as a relative value for the absorbance of the control group treated with only DMSO as 100%. […]

CO[C@H]1C[C@@H]2CC[C@@H](C)[C@@](O)(O2)C(=O)C(=O)N2CCCC[C@H]2C(=O)O[C@H]([C@H](C)C[C@@H]2CC[C@H](n3cnnn3)[C@H](OC)C2)CC(=O)[C@H](C)/C=C(\C)[C@@H](O)[C@@H](OC)C(=O)[C@H](C)C[C@H](C)/C=C/C=C/C=C/1C [zotarolimus]
SAβG activity staining [1]: significantly decreased
SAβG staining [2]: decreased
LDH activity in the cell culture medium [3]: no difference in LDH activity
cell growth (CCK-8) ([4]; premature senescent HUVEC by doxorubicin, 100 nM, 4 days, vs DMSO, p<0.01): significantly reduced
cell growth with increasing concentration of zotarolimus ([4]; young vs replicative senescent HUVEC): decreased compared to the young cells in a concentration-dependent manner

From patent US20220023271A1, “COMPOSITION FOR PREVENTING OR TREATING CELLULAR SENESCENCE-RELATED DISEASES COMPRISING ZOTAROLIMUS AS ACTIVE INGREDIENT” (RESEARCH COOPERATION FOUNDATION OF YEUNGNAM UNIVERSITY, priority 2018, published 2022)
